Each molecule was assayed on ATXN1(60Q) (assay: Daoy-ATXN1(60Q)-mATXN1 MSD assay (CTG normalized)). Conditions: Daoy-Flag-ATXN1(60Q) stable cells, compound added Day 2, lysis Day 3, final DMSO 0.3%, read-out: Daoy-ATXN1(60Q)-mATXN1 MSD (CTG normalized) DC50.
Format: cell-based
Experimental: Protocol for MSD Assay: Daoy-ATXN1(600)-mATXN1 MSD (CTG normalized)
The Flag-ATXN1(60Q) gene is synthesized by Genescript and cloned into the pLVX-IRES-Puro vector (Takarabio, catalog No. 632183) using EcoRI/BamHI restriction enzyme sites. Lentivirus is made by transfecting HEK293T cells with pLVX-IRES-Puro-Flag-ATXN1(60Q) plasmids and packaging plasmids psPAX2 and pMD2.G at 4:3:1 ratio (8:6:[…], respectively) in 10 cm plates, and are harvested at 48 hours post transfection. Daoy cells (ATCC catalog No. HTB-186) seeded in T25 flasks are infected with the lentivirus in the presence of 8 µg/mL polybrene (Sigma, TR-1003-G) for 24 hours. 48 hours post infection, the cells are selected using 0.5 […] (Sigma, P8833) for more than 5 days until all cells in the uninfected group die. The expression of Flag-ATXN1(60Q) is verified by anti-Flag immunoblot using anti-Flag antibody (Sigma, F1804-200UG, M2).
As explained above, Daoy-Flag-ATXN1(60Q) cells are prepared as a stable cell line by infecting Daoy cells with lentivirus. The media for the cells is EMEM (ATTC, 30-2008) with 10% fetal bovin serum (FBS).
On Day 1, the Daoy-Flag-ATXN1(60Q) cells are seeded in a 96 well plate at a concentration of 1.2×10^4/well. On Day 2, the cells are treated with test compounds at test concentrations (compounds are serially diluted with DMSO to obtain test concentrations, such that final DMSO concentration is 0.3%). On Day 3, the cells are washed with 100 μL of phosphate-buffered saline (PBS) per well, and then 30 μL of radioimmuno-precipitation assay (RIPA) buffer (with protease and phosphatase inhibitor cocktail) is added to each well.
The well plate is then cooled on ice for 30 minutes in order to complete lysis, and MSD samples are prepared using 10 μL of Daoy-Flag-ATXN1-60Q lysate and 90 μL of RIPA buffer with gentle mixing. Each MSD sample has a total volume of 100 μL, and is used immediately or stored at −80° C.
A standard Meso Scale Discovery (MSD) plate is coated with anti-Flag (Sigma, F1804-200UG, M2) in PBS at 1:500 dilution ratio and 40 µL/well, and is incubated at 4° C. overnight with shaking at 600 rpm. Then, the MSD plate is washed 3 times with 150 µL/well of 1X TBST (tris-buffered saline (TBS) with Tween 20) buffer, and the MSD plate is blocked with 150 μL of blocking buffer [3% Blocker A in 1X TBST, (3 g Blocker A per 100 mL 1X TBST)] and shaken for 1 hour at 600 rpm at room temperature. Then, the MSD plate is washed three times with 150 μL/well of 1X TBST. Next, the diluted lysate samples (from Sample Preparation above) are added to the MSD plate at 25 μL/well, and the MSD plate is shaken at 600 rpm for 1 hour at room temperature. Then the MSD plate is washed 3 times with 150 μL/well of 1X TBST.
Detection antibody anti-Ataxin 1 (G-bio, ITA1916) (1:500), which is prepared in antibody detection buffer (1% Blocker A in 1X TBST), is then added to the MSD plate at 25 µL/well, and the MSD plate is shaken at 600 rpm for 1 hour at room temperature. The MSD plate is then washed three times with 150 μL/well of 1X TBST. Next, a secondary detection antibody, Goat anti-rabit (GAR) with SULFO-TAG (1:500), which is prepared in antibody detection buffer (1% Blocker A in 1X TBST), is added at 25 μL/well and the MSD plate is shaken at 600 rpm for 1 hour at room temperature. Then the MSD plate is washed 3 times with 150 μL/well of 1X TBST, and 2X MSD reading buffer is added at 150 μL/well (diluted from 4x MSD reading buffer with water). Finally, the signal from each well is measured on the MSD Meso QuickPle SQ120 Plate Reader. DC50 data is calculated using collaborate drug discovery (CDD) software (https://www.collaborativedrug.com/about).

Q: Which DC50 does the source give for Cn1cc(N/C(=C2\C(=O)Nc3ccc(Br)cc32)c2ccc(F)c(F)c2)cn1 [Example 43, (Z)-5-bromo-3-((3,4-difluorophenyl)((1-methyl-1H-pyrazol-4-yl)amino)methylene) indolin-2-one] here?
A: > 30 µM

Q: Which DC50 does the source give for O=C1Nc2ccc(Br)cc2/C1=C(/Nc1cccnn1)c1ccccc1 [Example 44, (Z)-5-bromo-3-(phenyl(pyridazin-3-ylamino)methylene) indolin-2-one] here?
A: > 30 µM

Q: O=C1Nc2ccc(Br)cc2/C1=C(/Nc1cncnc1)c1ccccc1 [Example 45, (Z)-5-bromo-3-(phenyl(pyrimidin-5-ylamino)methylene) indolin-2-one] was tested. Which DC50 did it give?
A: < 10 µM

Q: How did the DC50 turn out when O=C1Nc2ccc(Br)cc2/C1=C(/Nc1cnccn1)c1ccccc1 [Example 46, (Z)-5-bromo-3-(phenyl(pyrazin-2-ylamino)methylene) indolin-2-one] was run?
A: > 30 µM

Q: With O=C1Nc2ccc(Br)cc2/C1=C(/Nc1cnnc(Cl)c1)c1ccccc1 [Example 47, (Z)-5-bromo-3-((6-chloropyridazin-4-ylamino)(phenyl)methylene)indolin-2-one] as the molecule, how does the DC50 read?
A: > 30 µM

Q: N#Cc1n[nH]cc1N/C(=C1\C(=O)Nc2ccc(Br)cc21)c1ccccc1 [Example 48, (Z)-4-(((5-bromo-2-oxoindolin-3-ylidene)(phenyl)methyl)amino)-1H-pyrazole-3-carbonitrile] was tested. Which DC50 did it give?
A: > 30 µM

Q: For O=C1Nc2ccc(Br)cc2/C1=C(/Nc1cncs1)c1ccccc1 [Example 49, (Z)-5-bromo-3-(phenyl(thiazol-5-ylamino)methylene)indolin-2-one], which DC50 is on record?
A: > 30 µM

Q: How did the DC50 turn out when Cn1cc(N/C(=C2\C(=O)Nc3ccc(Br)cc32)c2ccccc2)c(C(F)(F)F)n1 [Example 51, (Z)-5-bromo-3-(((1-methyl-3-(trifluoromethyl)-1H-pyrazol-4-yl)amino)(phenyl)methylene)indolin-2-one] was run?
A: > 30 µM

Q: O=C1Nc2ccc(Br)cc2/C1=C(/Nc1cnn(CCO)c1)c1ccccc1 [Example 53, (Z)-5-bromo-3-(((1-(2-hydroxyethyl)-1H-pyrazol-4-yl)amino)(phenyl)methylene)indolin-2-one] was tested. Which DC50 did it give?
A: 10 to 30 µM

Q: How did the DC50 turn out when O=C1Nc2ccc(Br)cc2/C1=C(/Nc1c[nH]nc1Cl)c1ccccc1 [Example 54, (Z)-5-bromo-3-((3-chloro-1H-pyrazol-4-ylamino)(phenyl)methylene)indolin-2-one] was run?
A: > 30 µM

Q: For O=C1Nc2ccc(Br)cc2/C1=C(/Nc1cnn(C(F)F)c1)c1ccccc1 [Example 55, (Z)-5-bromo-3-(((1-(difluoromethyl)-1H-pyrazol-4-yl)amino)(phenyl)methylene)indolin-2-one], which DC50 is on record?
A: > 30 µM

Q: Which DC50 does the source give for NCCN/C(=C1\C(=O)Nc2ccc(Br)cc21)c1ccc2[nH]c(=O)oc2c1 [Example 57, (Z)-6-(((2-aminoethyl)amino)(5-bromo-2-oxoindolin-3-ylidene)methyl) benzo[d]oxazol-2(3H)-one] here?
A: 10 to 30 µM

Q: Nc1cccc(/C(NCCCF)=C2/C(=O)Nc3ccc(Br)cc32)c1 [Example 58, (Z)-3-((3-aminophenyl)((3-fluoropropyl)amino)methylene)-5-bromoindolin-2-one] was tested. Which DC50 did it give?
A: < 10 µM

Q: For Nc1cccc(/C(Nc2cn[nH]c2)=C2/C(=O)Nc3ccc(Br)cc32)c1 [Example 59, (Z)-3-(((1H-pyrazol-4-yl)amino)(3-aminophenyl)methylene)-5-bromoindolin-2-one], which DC50 is on record?
A: < 10 µM

Q: Nc1cccc(/C(Nc2ccnnc2)=C2/C(=O)Nc3ccc(Br)cc32)c1 [Example 60, (Z)-3-((3-aminophenyl) (pyridazin-4-ylamino)methylene)-5-bromo indolin-2-one] was tested. Which DC50 did it give?
A: < 10 µM

Q: Which DC50 does the source give for CC(=O)NCCOCCOCCOCCN/C(=C1\C(=O)Nc2ccc(Br)cc21)c1cccc(O)c1 [Example 61, (Z)—N-(1-(5-bromo-2-oxoindolin-3-ylidene)-1-(3-hydroxyphenyl)-5,8,11-trioxa-2-azatridecan-13-yl)acetamide] here?
A: 10 to 30 µM

Q: COc1cc(/C(Nc2ccnnc2)=C2/C(=O)Nc3ccc(Br)cc32)ccc1N [Example 62, (Z)-3-((4-amino-3-methoxyphenyl)(pyridazin-4-ylamino)methylene)-5-bromoindolin-2-one] was tested. Which DC50 did it give?
A: > 30 µM

Q: Which DC50 does the source give for Nc1ccc(/C(Nc2ccnnc2)=C2/C(=O)Nc3ccc(Br)cc32)cc1O [Example 63, (Z)-3-((4-amino-3-hydroxyphenyl)(pyridazin-4-ylamino)methylene)-5-bromoindolin-2-one] here?
A: < 10 µM

Q: How did the DC50 turn out when O=C1Nc2ccc(Br)cc2/C1=C(/Nc1ccnnc1)c1ccc2[nH]c(=O)oc2c1 [Example 64, (Z)-6-((5-bromo-2-oxoindolin-3-ylidene)(pyridazin-4-ylamino)methyl) benzo[d]oxazol-2(3H)-one] was run?
A: < 10 µM

Q: For O=C1Nc2ccc(Br)cc2/C1=C(/Nc1cccnc1)c1cccc(O)c1 [Example 66, (Z)-5-bromo-3-((3-hydroxyphenyl) (pyridin-3-ylamino)methylene)indolin-2-one], which DC50 is on record?
A: < 10 µM

Q: O=C1Nc2ccc(Br)cc2/C1=C(/Nc1cncnc1)c1cccc(O)c1 [Example 69, (Z)-5-bromo-3-((3-hydroxyphenyl) (pyrimidin-5-ylamino)methylene)indolin-2-one] was tested. Which DC50 did it give?
A: < 10 µM

Q: For O=C1Nc2ccc(Br)cc2/C1=C(/Nc1cn[nH]c1)c1cccc(O)c1 [Example 70, (Z)-3-(((1H-pyrazol-4-yl)amino)(3-hydroxyphenyl)methylene)-5-bromoindolin-2-one], which DC50 is on record?
A: < 10 µM

Q: Which DC50 does the source give for Cn1cc(N/C(=C2\C(=O)Nc3ccc(Br)cc32)c2cccc(O)c2)cn1 [Example 71, (Z)-5-bromo-3-((3-hydroxyphenyl)((1-methyl-1H-pyrazol-4-yl)amino)methylene)indolin-2-one] here?
A: < 10 µM

Q: How did the DC50 turn out when O=C1Nc2ccc(Br)cc2/C1=C(/Nc1cnccn1)c1cccc(O)c1 [Example 72, (Z)-5-bromo-3-((3-hydroxyphenyl) (pyrazin-2-ylamino)methylene)indolin-2-one] was run?
A: < 10 µM

Q: O=C1Nc2ccc(Br)cc2/C1=C(/Nc1cccnn1)c1cccc(O)c1 [Example 73, (Z)-5-bromo-3-((3-hydroxyphenyl) (pyridazin-3-ylamino)methylene)indolin-2-one] was tested. Which DC50 did it give?
A: < 10 µM

Q: With O=C1Nc2ccc(Br)cc2/C1=C(/Nc1ccc(C(=O)O)cc1)c1cccc(O)c1 [Example 74, (Z)-4-(((5-bromo-2-oxoindolin-3-ylidene)(3-hydroxyphenyl)methyl)amino)benzoic acid] as the molecule, how does the DC50 read?
A: 10 to 30 µM

Q: With N/C(=C1\C(=O)Nc2ccc(Br)cc21)c1cc(C(F)F)ccn1 [Example 75, (Z)-3-(amino(4-(difluoromethyl)pyridin-2-yl)methylene)-5-bromo indolin-2-one] as the molecule, how does the DC50 read?
A: 10 to 30 µM

Q: For N/C(=C1\C(=O)Nc2ccc(Br)cc21)c1cc2ccccc2o1 [Example 76, (Z)-3-(amino (benzofuran-2-yl)methylene)-5-bromoindolin-2-one], which DC50 is on record?
A: < 10 µM

Q: For N/C(=C1\C(=O)Nc2ccc(Br)cc21)c1ccncc1 [Example 77, (Z)-3-(amino (pyridin-4-yl)methylene)-5-bromoindolin-2-one], which DC50 is on record?
A: < 10 µM

Q: For N/C(=C1\C(=O)Nc2ccc(Br)cc21)c1ncccn1 [Example 78, (Z)-3-(amino (pyrimidin-2-yl)methylene)-5-bromoindolin-2-one], which DC50 is on record?
A: > 30 µM

Q: For NC(=C1C(=O)Nc2ccc(Br)cc21)C1COc2ccccc2O1 (stereo not shown) [Example 79, 3-(Amino(2,3-dihydrobenzo[b] [1,4]dioxin-2-yl)methylene)-5-bromoindolin-2-one], which DC50 is on record?
A: > 30 µM

Reference: US20250051282A1, “COMPOUNDS FOR TREATING POLYQ-RELATED NEURODEGENERATIVE DISORDERS” (HANGZHOU JIJING PHARMACEUTICAL TECHNOLOGY LIMITED, priority 2021, published 2025)
